Numbers after ± are expanded uncertainties.
Experiment: xn = mol fraction of the nth substance listed

c1cnccn1 [pyrazine] + O=C=O
Fluid (supercritical or subcritical phases), Linear displacement technique
Settings	mass density [kg/m3]
339.45 K, 13280 kPa, x1 = 0.074	750 ± 46
340.95 K, 12380 kPa, x1 = 0.116	693 ± 28
340.95 K, 15210 kPa, x1 = 0.116	739 ± 30
345.05 K, 12450 kPa, x1 = 0.224	823 ± 33
345.05 K, 19340 kPa, x1 = 0.224	858 ± 34
345.55 K, 10380 kPa, x1 = 0.397	995 ± 40
345.55 K, 12480 kPa, x1 = 0.397	999 ± 40
345.55 K, 12860 kPa, x1 = 0.397	1002 ± 40
347.75 K, 13030 kPa, x1 = 0.177	758 ± 31
347.75 K, 14100 kPa, x1 = 0.177	770 ± 31
347.75 K, 16790 kPa, x1 = 0.177	792 ± 32
348.05 K, 12310 kPa, x1 = 0.308	965 ± 39
348.05 K, 17620 kPa, x1 = 0.308	986 ± 39
348.05 K, 19720 kPa, x1 = 0.308	996 ± 40
348.95 K, 13380 kPa, x1 = 0.09	684 ± 27
348.95 K, 13690 kPa, x1 = 0.09	683 ± 27
348.95 K, 16450 kPa, x1 = 0.09	771 ± 32
350.55 K, 13760 kPa, x1 = 0.116	665 ± 27
350.55 K, 15520 kPa, x1 = 0.116	707 ± 29
350.85 K, 13410 kPa, x1 = 0.146	708 ± 28
351.95 K, 13450 kPa, x1 = 0.074	604 ± 27
351.95 K, 16280 kPa, x1 = 0.074	719 ± 31
352.35 K, 11140 kPa, x1 = 0.019	335 ± 23
352.35 K, 11210 kPa, x1 = 0.019	352 ± 21
352.35 K, 12310 kPa, x1 = 0.019	415 ± 23
352.35 K, 12480 kPa, x1 = 0.019	428 ± 22
352.35 K, 12790 kPa, x1 = 0.019	443 ± 22
360.85 K, 14860 kPa, x1 = 0.116	630 ± 26
360.85 K, 17720 kPa, x1 = 0.116	695 ± 29
362.25 K, 14720 kPa, x1 = 0.177	709 ± 29
362.25 K, 14830 kPa, x1 = 0.177	712 ± 29
362.25 K, 19480 kPa, x1 = 0.177	761 ± 31
362.35 K, 14660 kPa, x1 = 0.224	779 ± 31
362.35 K, 18660 kPa, x1 = 0.224	802 ± 32
365.65 K, 15210 kPa, x1 = 0.09	591 ± 24
366.25 K, 14930 kPa, x1 = 0.074	542 ± 22
366.25 K, 15760 kPa, x1 = 0.074	547 ± 23
366.25 K, 16860 kPa, x1 = 0.074	511 ± 23
369.65 K, 14550 kPa, x1 = 0.397	964 ± 39
369.65 K, 16410 kPa, x1 = 0.397	968 ± 39
369.65 K, 20720 kPa, x1 = 0.397	982 ± 39
372.55 K, 11480 kPa, x1 = 0.495	959 ± 38
372.55 K, 12720 kPa, x1 = 0.495	962 ± 38
372.55 K, 15000 kPa, x1 = 0.495	970 ± 39

linear displacement
Settings	mass density [kg/m3]
339.45 K, Liquid, x1 = 0.074	695 ± 28
340.95 K, Liquid, x1 = 0.116	684 ± 27
345.05 K, Liquid, x1 = 0.224	816 ± 33
345.55 K, Liquid, x1 = 0.397	991 ± 40
347.75 K, Liquid, x1 = 0.177	751 ± 30
348.05 K, Liquid, x1 = 0.308	957 ± 38
348.95 K, Liquid, x1 = 0.09	672 ± 27
350.55 K, Liquid, x1 = 0.116	651 ± 26
350.85 K, Liquid, x1 = 0.146	703 ± 29
351.95 K, Liquid, x1 = 0.074	589 ± 24
352.35 K, Gas, x1 = 0.019	324 ± 18
360.85 K, Liquid, x1 = 0.116	620 ± 25
362.25 K, Liquid, x1 = 0.177	704 ± 29
362.35 K, Liquid, x1 = 0.224	770 ± 31
365.65 K, Liquid, x1 = 0.09	582 ± 23
366.25 K, Liquid, x1 = 0.074	532 ± 22
369.65 K, Liquid, x1 = 0.397	952 ± 38
372.55 K, Liquid, x1 = 0.495	955 ± 38

From the NIST ThermoML archive (doi:10.1021/je0601457)
